Assay results from patent US9777003B2, “Tricyclic heterocycles as bet protein inhibitors” (Incyte Corporation, priority 2013, dated 2017).
Counter-ions that a name gives are not always drawn.

Key:
BRD4-BD2 = BRD4-BD2 (Homo sapiens (Human), UniProt O60885); assay: BRD4 AlphaScreen assay, BRD4-BD2; assay type: binding; conditions: biotin-labeled tetra-acetylated histone H4 peptide, 75 min, room temperature, read-out: BRD4 BD-2 enzyme IC50
Experimental: (§1) BRD4-BD1 and BRD4-BD2 assays were conducted in white 384-well polystyrene plate in a final volume of 20 μL for BD1 and 40 μL for BD2. Inhibitors were first serially diluted in DMSO and added to the plate wells before the addition of other reaction components. The final concentration of DMSO in the assay was 1.25% (BD1) and 0.83% (BD2). The assays were carried out at room temperature for 75 min. in the assay buffer (50 mM HEPES, pH 7.4, 100 mM NaCl, 0.05% CHAPS, 0.01% BSA), containing 50 nM Biotin-labeled tetra-acetylated histone H4 peptide (H4Ac4), 3.8 nM (BRD4-BD1, BPS Bioscience #31040) or 20 nM (BRD4-BD2, BPS Bioscience #31041). The reaction followed by the addition of 20 μL of assay buffer supplemented with Streptavidin donor beads (PerkinElmer 6760002) and GSH Acceptor beads (PerkinElmer-AL109C) at 4 μg/mL under reduced light. After plate sealing, the plate was incubated in the dark at room temperature for 75 min. before reading on a PHERAstar FS plate reader (BMG Labtech). IC50 determination was performed by fitting the curve of percent control activity versus the log of the inhibitor concentration using the GraphPad Prism 5.0 software.

BRD4-BD1 = BRD4-BD1 (Homo sapiens (Human), UniProt O60885); assay: BRD4 AlphaScreen assay, BRD4-BD1; assay type: binding; conditions: biotin-labeled tetra-acetylated histone H4 peptide, 75 min, room temperature, read-out: BRD4 BD-1 enzyme IC50
Experimental: as §1

SMILES	IC50 (BRD4-BD2)	IC50 (BRD4-BD1)
CCCC(=O)Nc1cc2c(cc(C)n2Cc2ccccc2)n2c(C)nnc12 [Example 267, N-(6-Benzyl-1,7-dimethyl-6H-pyrrolo[2,3-e][1,2,4]triazolo[4,3-a]pyridin-4-yl)butyramide]	≤ 100 nM	100 to 1000 nM
Cc1cc2c(cc(NCC3CN(C(=O)OC(C)(C)C)C3)c3nnc(C)n32)n1Cc1ccccc1 [Example 243, tert-Butyl 3-((6-benzyl-1,7-dimethyl-6H-pyrrolo[2,3-e][1,2,4]triazolo[4,3-a]pyridin-4-ylamino)methyl)azetidine-1-carboxylate]	≤ 100 nM	100 to 1000 nM
CNC(=O)c1cc2c(ccc3nnc(C)n32)n1Cc1cc(Cl)cc(CN2CCC2)c1 [Example 131, 6-[3-(Azetidin-1-ylmethyl)-5-chlorobenzyl]-N,1-dimethyl-6H-pyrrolo[2,3-e][1,2,4]triazolo[4,3-a]pyridine-7-carboxamide bis(trifluoroacetate) Salt]	≤ 100 nM	≤ 100 nM
Cc1nnc2ccc3c(cc(C(=O)N4CCOCC4)n3Cc3cccc(Cl)c3)n12 [Example 116, 6-(3-Chlorobenzyl)-1-methyl-7-(morpholin-4-ylcarbonyl)-6H-pyrrolo[2,3-e][1,2,4]triazolo[4,3-a]pyridine Trifluoroacetate Salt]	1000 to 10000 nM	1000 to 10000 nM
Cc1nnc2ccc3c(cc(-c4ccn(C5(CC#N)CN(C)C5)n4)n3Cc3ccccc3)n12 [Example 93, {3-[3-(6-benzyl-1-methyl-6H-pyrrolo[2,3-e][1,2,4]triazolo[4,3-a]pyridin-7-yl)-1H-pyrazol-1-yl]-1-methylazetidin-3-yl}acetonitrile]	≤ 100 nM	≤ 100 nM
Cc1nnc2ccc3c(cc(C4=NCCO4)n3Cc3cccc(Cl)c3)n12 [Example 193, 6-(3-Chlorobenzyl)-7-(4,5-dihydro-1,3-oxazol-2-yl)-1-methyl-6H-pyrrolo[2,3-e][1,2,4]triazolo[4,3-a]pyridine]	≤ 100 nM	≤ 100 nM
CCC(=O)Nc1cc2c(cc(C)n2Cc2ccccc2)n2c(C)nnc12 [Example 268, N-(6-Benzyl-1,7-dimethyl-6H-pyrrolo[2,3-e][1,2,4]triazolo[4,3-a]pyridin-4-yl)propionamide]	≤ 100 nM	≤ 100 nM
Cc1cc2c(cc(NC(=O)NC(C)C)c3nnc(C)n32)n1Cc1ccccc1 [Example 250, 1-(6-Benzyl-1,7-dimethyl-6H-pyrrolo[2,3-e][1,2,4]triazolo[4,3-a]pyridin-4-yl)-3-isopropylurea]	≤ 100 nM	≤ 100 nM
Cc1nnc2ccc3c(cc(C(=O)NCC(C)C)n3Cc3cccc(Cl)c3)n12 [Example 129, 6-(3-Chlorobenzyl)-N-isobutyl-1-methyl-6H-pyrrolo[2,3-e][1,2,4]triazolo[4,3-a]pyridine-7-carboxamide Trifluoroacetate Salt]	≤ 100 nM	≤ 100 nM
Cc1cc2c(cc(NC3CCCN(C)C3)c3nnc(C)n32)n1Cc1ccccc1 (racemic) [Example 144, 6-benzyl-1,7-dimethyl-N-(1-methylpiperidin-3-yl)-6H-pyrrolo[2,3-e][1,2,4]triazolo[4,3-a]pyridin-4-amine]	≤ 100 nM	≤ 100 nM
Cc1nnc2ccc3c(cc(-c4ccn(CC#N)n4)n3Cc3ccccc3)n12 [Example 65, [3-(6-benzyl-1-methyl-6H-pyrrolo[2,3-e][1,2,4]triazolo[4,3-a]pyridin-7-yl)-1H-pyrazol-1-yl]acetonitrile]	≤ 100 nM	≤ 100 nM
COc1cccc(Cn2c(C)cc3c2ccc2nnc(C)n23)c1 [Example 22, 6-(3-methoxybenzyl)-1,7-dimethyl-6H-pyrrolo[2,3-e][1,2,4]triazolo[4,3-a]pyridine]	≤ 100 nM	100 to 1000 nM
Cc1cc2c(cc(NC(N)=O)c3nnc(C)n32)n1Cc1ccccc1 [Example 252, 1-(6-Benzyl-1,7-dimethyl-6H-pyrrolo[2,3-e][1,24]triazolo[4,3-a]pyridin-4-yl)urea]	≤ 100 nM	≤ 100 nM
Cc1nnc2ccc3c(cc(-c4ccsc4)n3Cc3ccccc3)n12 [Example 72, 6-benzyl-1-methyl-7-(3-thienyl)-6H-pyrrolo[2,3-e][1,2,4]triazolo[4,3-a]pyridine]	≤ 100 nM	≤ 100 nM
Cc1nnc2ccc3c(cc(-c4cn(C)cn4)n3Cc3ccccc3)n12 [Example 70, 6-benzyl-1-methyl-7-(1-methyl-1H-imidazol-4-yl)-6H-pyrrolo[2,3-e][1,2,4]triazolo[4,3-a]pyridine]	≤ 100 nM	≤ 100 nM
Cc1nnc2ccc3c(cc(CO)n3Cc3ccccc3)n12 [Example 56, (6-benzyl-1-methyl-6H-pyrrolo[2,3-e][1,2,4]triazolo[4,3-a]pyridin-7-yl)methanol]	≤ 100 nM	100 to 1000 nM
Cc1cc2c(ccc3nnc(C)n32)n1CCc1ccccc1 [Example 6, 1,7-dimethyl-6-(2-phenylethyl)-6H-pyrrolo[2,3-e][1,2,4]triazolo[4,3-a]pyridine]	100 to 1000 nM	100 to 1000 nM
Cc1nnc2ccc3c(cc(C(=O)NCCO)n3Cc3cccc(Cl)c3)n12 [Example 117, 6-(3-Chlorobenzyl)-N-(2-hydroxyethyl)-1-methyl-6H-pyrrolo[2,3-e][1,2,4]triazolo[4,3-a]pyridine-7-carboxamide Trifluoroacetate Salt]	≤ 100 nM	≤ 100 nM
Cc1nnc2ccc3c(cc(-c4ccn(CCC(=O)NC5CN(C)C5)n4)n3Cc3cccc(Cl)c3)n12 [Example 171, 3-{3-[6-(3-Chlorobenzyl)-1-methyl-6H-pyrrolo[2,3-e][1,2,4]triazolo[4,3-a]pyridin-7-yl]-1H-pyrazol-1-yl}-N-(1-methylazetidin-3-yl)propanamide bis(trifluoroacetate) Salt]	≤ 100 nM	≤ 100 nM
Cc1cc2c(cc(N[C@@H]3CCNC3)c3nnc(C)n32)n1Cc1ccccc1 [Example 151, 6-benzyl-1,7-dimethyl-N-[(3R)-pyrrolidin-3-yl]-6H-pyrrolo[2,3-e][1,2,4]triazolo[4,3-a]pyridin-4-amine bis(trifluoroacetate) Salt]	≤ 100 nM	≤ 100 nM
Cc1cccc(Cn2c(C)cc3c2ccc2nnc(C)n23)c1 [Example 18, 1,7-dimethyl-6-(3-methylbenzyl)-6H-pyrrolo[2,3-e][1,2,4]triazolo[4,3-a]pyridine]	≤ 100 nM	≤ 100 nM
Cc1cc2c(cc(N[C@H]3CC[C@@H](C#N)CC3)c3nnc(C)n32)n1Cc1ccccc1 (single isomer, unassigned) [Example 215 b, 4-[(6-benzyl-1,7-dimethyl-6H-pyrrolo[2,3-e][1,2,4]triazolo[4,3-a]pyridin-4-yl)amino]cyclohexanecarbonitrile Trifluoroacetate Salt]	≤ 100 nM	≤ 100 nM
CCNC(=O)c1cc2c(ccc3nnc(C)n32)n1Cc1cccc(C(F)(F)F)c1 [Example 137, N-Ethyl-1-methyl-6-[3-(trifluoromethyl)benzyl]-6H-pyrrolo[2,3-e][1,2,4]triazolo[4,3-a]pyridine-7-carboxamide Trifluoroacetate Salt]	≤ 100 nM	≤ 100 nM
Cc1cc2c(cc(NCCN3CCOCC3)c3nnc(C)n32)n1Cc1ccccc1 [Example 208, 6-Benzyl-1,7-dimethyl-N-(2-morpholin-4-ylethyl)-6H-pyrrolo[2,3-e][1,2,4]triazolo[4,3-a]pyridin-4-amine]	≤ 100 nM	≤ 100 nM
Cc1cc2c(cc(NC(N)=O)c3nnc(C)n32)n1Cc1cc(F)cc(F)c1 [Example 233, 1-(6-(3,5-Difluorobenzyl)-1,7-dimethyl-6H-pyrrolo[2,3-e][1,2,4]triazolo[4,3-a]pyridin-4-yl)urea]	≤ 100 nM	≤ 100 nM
Cc1cc2c(ccc3nnc(C)n32)n1C(CO)c1ccccc1 (racemic) [Example 29, 2-(1,7-dimethyl-6H-pyrrolo[2,3-e][1,2,4]triazolo[4,3-a]pyridin-6-yl)-2-phenylethanol]	100 to 1000 nM	100 to 1000 nM
Cc1cc2c(cc(NC(=O)C3CC3)c3nnc(C)n32)n1Cc1ccccc1 [Example 269, N-(6-Benzyl-1,7-dimethyl-6H-pyrrolo[2,3-e][1,2,4]triazolo[4,3-a]pyridin-4-yl)cyclopropanecarboxamide]	≤ 100 nM	≤ 100 nM
Cc1cc2c(ccc3nnc(C)n32)n1Cc1ccc(O)cc1 [Example 35, 4-[(1,7-dimethyl-6H-pyrrolo[2,3-e][1,2,4]triazolo[4,3-a]pyridin-6-yl)methyl]phenol]	≤ 100 nM	≤ 100 nM
Cc1nnc2ccc3c(cc(-c4ccn(C5(CC#N)CN(S(C)(=O)=O)C5)n4)n3Cc3cccc(Cl)c3)n12 [Example 107, [3-{3-[6-(3-chlorobenzyl)-1-methyl-6H-pyrrolo[2,3-e][1,2,4]triazolo[4,3-a]pyridin-7-yl]-1H-pyrazol-1-yl}-1-(methylsulfonyl)azetidin-3-yl]acetonitrile]	≤ 100 nM	≤ 100 nM
Cc1cc2c(ccc3nnc(C)n32)n1S(=O)(=O)c1ccccc1 [Example 2a, 1,7-dimethyl-6-(phenylsulfonyl)-6H-pyrrolo[2,3-e][1,2,4]triazolo[4,3-a]pyridine]	100 to 1000 nM	–
